Results: article PMC10065276, “Enhanced therapeutic window for antimicrobial Pept-ins by investigating their structure-activity relationship” (PLOS ONE, 2023)
≈ marks a conversion by molar mass, not a printed value. Where “and” joins values, the source holds several entries; their conditions need not be identical. Identical values can stand only once. Like-named read-outs stand apart in the source and are kept apart here. Positions of bridges follow the written chain, without caps; N, C: chain ends. Residues, ends and D or L forms follow the SMILES beside them.

Tests used:
HEK 293T cells = experiment: CellTiter Blue assay; assay type: cell-based, human; details: about 16 hours treatment, viability normalised to vehicle
Description: HEK 293T cells (ATCC CRL-3216) were grown in DMEM medium, supplemented with 10% FBS, 1 mM sodium pyruvate, non-essential amino acids. 100 μL of 10 000 cells were grown in flat-bottom 96-well plates (Fischer Scientific) overnight until cells are attached to the plate. Peptides were dissolved with Mini-plasco Nacl 0.9% (B. Braun) to 2 mg/mL and diluted to indicated concentrations using cell culture medium. Cells were treated by adding 100 μL peptides to each well for about 16 hours. Cells lysed with 1% Triton X-100 was included as a positive control. The toxicity of the peptide treatments was evaluated using the CellTiter-Blue Cell Viability Assay according to the instructions of the manufacturer (Promega, USA). The metabolic activity of viable cells is measured by recording fluorescence intensity at 590 nm after excitation at 560 nm. Cell viability is determined by normalising the fluorescence intensity of peptide- or triton-treated cells to the vehicle-treated sample.

E. coli BL21 = details: BL21, 17 h
Method in brief: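 EUCAST broth microdilution in Mueller-Hinton medium; end-exponential culture diluted to 0.005 McF (~1.5x10^6 CFU/mL) before 1:1 mixing with two-fold peptide dilutions (0.75 to 100 μg/mL), triplicates.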

[1] = system: E. coli XL1-Red (ancestor strain); assay type: cell-based; details: XL1-Red (ancestor strain, 17 h)
Description: In a previous study, we generated a P2-resistant strain by subculturing the hypermutable E. coli XL1-Red, which has a 5 000-fold higher mutation rate than wildtype bacteria, at the sub-MIC concentration of P2 for 27 days. […] The MIC of a few categories of P2 variants were determined to investigate whether P2 antimicrobial activity can be restored against P2-resistant bacteria via structure modification. […] The amount of intracellularly accumulated P2_VFV in P2-resistant strains was much higher than P2 (Fig 5A), which was sufficient to induce cell death (FAM^+Draq7^+ cells) (Fig 5B). […] (Fig 5C).
(§1) The peptide MIC was determined via the broth microdilution assay according to the EUCAST guideline, using 96-well polystyrene flat-bottom microtiter plates (BD Biosciences). Briefly, a single colony was inoculated in 5 mL Mueller-Hinton (MH) medium and incubated, while shaking at 37°C, to the end-exponential growth phase. The bacterial culture was subsequently diluted to 0.005 McFarland (McF) (~1.5x10^6 CFU/mL) with fresh MH medium. Two-fold serial peptide-dilutions were prepared in 50 μL MH medium resulting in a concentration range of 0.75 to 100 μg/mL (at least three wells for each concentration). […] The MIC was determined as the lowest peptide concentration without visible bacterial growth.

[2] = system: E. coli ATCC clinical isolates; experiment: microbe, parasite or virus in culture; assay type: cell-based
From the text: To address the emerging antibiotic resistance issue, it is not only required to develop active antibiotics against wildtype bacteria, but also against the clinically isolated multidrug-resistant strains. Therefore, we determined whether P2 variants with a 4-fold lower MICs (P2_A5F, V7Y (P2), P2_H12_GV, P2_H12_PEG) (S12 Table) will also show improved antimicrobial activity against these multidrug-resistant strains. Since a high net positive charge could carry inherent developability challenges, we further explored the therapeutic potential of P2 variants with reduced net charge (P2_4R_GV and P2_4R_L) (S12 Table) by determining their antimicrobial activity against these clinically isolated multidrug-resistant strains. The mode of action of these derivatives remains to be inducing protein aggregation in bacteria as shown by the formation of IBs stained by pFTAA after Pept-in treatment (P2, P2-4R-GV, P2_A5F, V7Y (P2), P2_H12_GV, P2_H12_PEG) (S6A Fig) and the presence of a large number of proteins with different molecular weights in purified IBs as shown by the Coomassie staining (S6B Fig), in contrast to the absence of pFTAA staining (S6A Fig) and the presence of only two faint protein bands (S6B Fig) for buffer and control peptide treated bacteria. For clinically isolated multidrug-resistant strains, in addition to the 34 clinical isolates of E. coli ATCC, we added 12 Acinetobacter baumannii (A. baumannii) isolates and 12 Klebsiella pneumoniae (K. pneumoniae) isolates to broaden the selection of the bacterial spectrum.
as §1, with “medium.” for “medium. Two-fold serial peptide-dilutions were prepared in 50 μL MH medium resulting in a concentration range of 0.75 to 100 μg/mL (at least three wells for each concentration).”

[3] = system: K. pneumoniae clinical isolates; assay type: cell-based, Klebsiella pneumoniae; details: 17 h
From the text: To address the emerging antibiotic resistance issue, it is not only required to develop active antibiotics against wildtype bacteria, but also against the clinically isolated multidrug-resistant strains. Therefore, we determined whether P2 variants with a 4-fold lower MICs (P2_A5F, V7Y (P2), P2_H12_GV, P2_H12_PEG) (S12 Table) will also show improved antimicrobial activity against these multidrug-resistant strains. Since a high net positive charge could carry inherent developability challenges, we further explored the therapeutic potential of P2 variants with reduced net charge (P2_4R_GV and P2_4R_L) (S12 Table) by determining their antimicrobial activity against these clinically isolated multidrug-resistant strains. […]
The peptide MIC was determined via the broth microdilution assay according to the EUCAST guideline, using 96-well polystyrene flat-bottom microtiter plates (BD Biosciences). […] The MIC was determined as the lowest peptide concentration without visible bacterial growth.

CC(C)C[C@H](NC(=O)CNC(=O)[C@H](CCCNC(=N)N)NC(=O)[C@H](CC(C)C)NC(=O)[C@H](C)NC(=O)[C@H](CCCNC(=N)N)NC(=O)[C@@H](NC(=O)[C@H](CC(C)C)NC(=O)[C@H](C)NC(=O)[C@H](CC(C)C)NC(=O)CNC(=O)[C@H](CC(C)C)NC(=O)CNC(=O)[C@@H](N)CCCNC(=N)N)C(C)C)C(=O)NCC(=O)N[C@@H](CC(C)C)C(=O)N[C@@H](C)C(=O)N[C@@H](CC(C)C)C(=O)N[C@H](C(=O)N[C@@H](C)C(=O)N[C@@H](CCCNC(=N)N)C(=O)O)C(C)C [Peptide P2_4R_L] (H-RGLGLALVRALRGLGLALVAR-OH)
toxicity on HEK 293T cells (HEK 293T cells): induced toxicity effects

CC(C)C[C@H](NC(=O)CNC(=O)[C@H](CCCNC(=N)N)NC(=O)[C@@H](NC(=O)CNC(=O)[C@H](CCCNC(=N)N)NC(=O)[C@H](CCCNC(=N)N)NC(=O)[C@@H](NC(=O)[C@H](CC(C)C)NC(=O)[C@H](C)NC(=O)[C@H](CC(C)C)NC(=O)CNC(=O)[C@H](CC(C)C)NC(=O)CNC(=O)[C@@H](N)CCCNC(=N)N)C(C)C)C(C)C)C(=O)NCC(=O)N[C@@H](CC(C)C)C(=O)N[C@@H](C)C(=O)N[C@@H](CC(C)C)C(=O)N[C@H](C(=O)N[C@@H](CCCNC(=N)N)C(=O)N[C@@H](CCCNC(=N)N)C(=O)O)C(C)C [Peptide P2_GV] (H-RGLGLALVRRGVRGLGLALVRR-OH)
toxicity on HEK 293T cells (HEK 293T cells): induced toxicity effects

CC(C)C[C@@H]1NC(=O)CNC(=O)[C@H](CCCNC(=N)N)NC(=O)[C@H](C(C)C)NC(=O)[C@H](CCCNC(=N)N)NC(=O)[C@H](CCCNC(=N)N)NC(=O)[C@H](C(C)C)NC(=O)[C@H](CC(C)C)NC(=O)[C@H](C)NC(=O)[C@H](CC(C)C)NC(=O)CNC(=O)[C@H](CC(C)C)NC(=O)[C@@H](NC(=O)[C@@H](N)CCCNC(=N)N)CSSC[C@@H](C(=O)O)NC(=O)[C@H](CO)NC(=O)CNC(=O)[C@H](CCCNC(=N)N)NC(=O)[C@H](CCCNC(=N)N)NC(=O)[C@H](CC(C)C)NC(=O)[C@H](C)NC(=O)[C@H](CC(C)C)NC(=O)CNC1=O [Peptide P2_H6] (H-RCLGLALVRRVRGLGLALRRGSC-OH; disulfide 2-23)
BL21 MIC, SS bond (E. coli BL21): 6.25 µg/mL | BL21 MIC, no SS bond (E. coli BL21): 12.5 µg/mL | MIC, Ancestor [1]: 3.13 µg/mL (≈ 1.25 µM)

CC(C)C[C@H](NC(=O)CNC(=O)[C@H](CCCNC(=N)N)NC(=O)[C@@H]1CSSC[C@H](NC(=O)[C@@H](NC(=O)[C@H](CC(C)C)NC(=O)[C@H](C)NC(=O)[C@H](CC(C)C)NC(=O)CNC(=O)[C@H](CC(C)C)NC(=O)CNC(=O)[C@@H](N)CCCNC(=N)N)C(C)C)C(=O)N[C@@H](CCCNC(=N)N)C(=O)N[C@@H](CCCNC(=N)N)C(=O)NCC(=O)N[C@@H](C(C)C)C(=O)N1)C(=O)NCC(=O)N[C@@H](CC(C)C)C(=O)N[C@@H](C)C(=O)N[C@@H](CC(C)C)C(=O)N[C@H](C(=O)N[C@@H](CCCNC(=N)N)C(=O)N[C@@H](CCCNC(=N)N)C(=O)O)C(C)C [Peptide P2_H12_GV] (H-RGLGLALVCRRGVCRGLGLALVRR-OH; disulfide 9-14)
BL21 MIC (E. coli BL21): 3.13 µg/mL | BL21 MIC, SS bond (E. coli BL21): 3.13 µg/mL | BL21 MIC, no SS bond (E. coli BL21): 6.25 µg/mL | MIC, Ancestor [1]: 3.13 µg/mL (≈ 1.22 µM)

CC(C)C[C@H](NC(=O)CNC(=O)[C@H](CCCNC(=N)N)NC(=O)[C@@H]1CCCN1C(=O)[C@H](CCCNC(=N)N)NC(=O)[C@H](CCCNC(=N)N)NC(=O)[C@@H](NC(=O)[C@H](CC(C)C)NC(=O)[C@H](C)NC(=O)[C@H](CC(C)C)NC(=O)CNC(=O)[C@H](CC(C)C)NC(=O)CNC(=O)[C@@H](NC(=O)[C@H](Cc1ccccc1)NC(=O)[C@@H](NC(=O)[C@@H](N)CCCNC(=N)N)C(C)C)C(C)C)C(C)C)C(=O)NCC(=O)N[C@@H](CC(C)C)C(=O)N[C@@H](C)C(=O)N[C@@H](CC(C)C)C(=O)N[C@H](C(=O)N[C@@H](CCCNC(=N)N)C(=O)N[C@@H](CCCNC(=N)N)C(=O)O)C(C)C [Peptide P2_VFV] (H-RVFVGLGLALVRRPRGLGLALVRR-OH)
toxicity on HEK 293T cells (HEK 293T cells): higher toxicity at 400 μg/mL and 200 μg/mL than P2

NC[C@H]1O[C@H](O[C@H]2[C@H](O)[C@@H](O[C@H]3O[C@H](CO)[C@@H](O)[C@H](N)[C@H]3O)[C@H](N)C[C@@H]2N)[C@H](N)C[C@@H]1O [Tobramycin]
MIC ([2]; Escherichia coli, S12 Table, each table row is one E. coli clinical isolate (34 isolates), highest concentration tested 32 μg/mL, read-out: MIC): 1 µg/mL (≈ 2.14 µM) | MIC ([2]; S12 Table, each table row is one E. coli clinical isolate (34 isolates), highest concentration tested 32 μg/mL): 0.5 µg/mL and >1 µg/mL

CC(C)C[C@H](NC(=O)CNC(=O)[C@H](CCCNC(=N)N)NC(=O)[C@@H]1CCCN1C(=O)[C@H](CCCNC(=N)N)NC(=O)[C@H](CCCNC(=N)N)NC(=O)[C@@H](NC(=O)[C@H](CC(C)C)NC(=O)[C@H](C)NC(=O)[C@H](CC(C)C)NC(=O)CNC(=O)[C@H](CC(C)C)NC(=O)CNC(=O)[C@@H](N)CCCNC(=N)N)[C@@H](C)O)C(=O)NCC(=O)N[C@@H](CC(C)C)C(=O)N[C@@H](C)C(=O)N[C@@H](CC(C)C)C(=O)N[C@H](C(=O)N[C@@H](CCCNC(=N)N)C(=O)N[C@@H](CCCNC(=N)N)C(=O)O)[C@@H](C)O [V7T (P2)] (H-RGLGLALTRRPRGLGLALTRR-OH)
BL21 MIC (E. coli BL21): 50.00 µg/mL

CC(C)C[C@H](NC(=O)CNC(=O)[C@H](CCCNC(=N)N)NC(=O)[C@@H]1CCCN1C(=O)[C@H](CCCNC(=N)N)NC(=O)[C@H](CCCNC(=N)N)NC(=O)[C@H](Cc1ccc(O)cc1)NC(=O)[C@H](CC(C)C)NC(=O)[C@H](C)NC(=O)[C@H](CC(C)C)NC(=O)CNC(=O)[C@H](CC(C)C)NC(=O)CNC(=O)[C@@H](N)CCCNC(=N)N)C(=O)NCC(=O)N[C@@H](CC(C)C)C(=O)N[C@@H](C)C(=O)N[C@@H](CC(C)C)C(=O)N[C@@H](Cc1ccc(O)cc1)C(=O)N[C@@H](CCCNC(=N)N)C(=O)N[C@@H](CCCNC(=N)N)C(=O)O [V7Y (P2)] (H-RGLGLALYRRPRGLGLALYRR-OH)
MIC [3]: 8 µg/mL (≈ 3.29 µM) | MIC ([2]; ATCC clinical isolates, 17 h): 8 µg/mL (≈ 3.29 µM) | BL21 MIC (E. coli BL21): 3.13 µg/mL
